Experimental data: publication PMC6637425 (ChemMedChem, 2019)
Read-outs that look alike come from different tables or passages of the source.

Key:
BACE1 enzyme = BACE1 enzyme (Homo sapiens, UniProt P56817); test: BACE1 enzyme inhibition, Ki from kinetic data under tight-binding conditions; format: biochemical; settings: for selectivity for BACE1 against BACE2: ratio of Ki values
BACE2 enzyme = target: T1, BACE2 enzyme (Homo sapiens, UniProt Q9Y5Z0); test: BACE2 enzyme inhibition, Ki from kinetic data under tight-binding conditions; format: biochemical; settings: for selectivity for BACE2 over BACE1: ratio of Ki values
T1 sequence (Q9Y5Z0 63-518): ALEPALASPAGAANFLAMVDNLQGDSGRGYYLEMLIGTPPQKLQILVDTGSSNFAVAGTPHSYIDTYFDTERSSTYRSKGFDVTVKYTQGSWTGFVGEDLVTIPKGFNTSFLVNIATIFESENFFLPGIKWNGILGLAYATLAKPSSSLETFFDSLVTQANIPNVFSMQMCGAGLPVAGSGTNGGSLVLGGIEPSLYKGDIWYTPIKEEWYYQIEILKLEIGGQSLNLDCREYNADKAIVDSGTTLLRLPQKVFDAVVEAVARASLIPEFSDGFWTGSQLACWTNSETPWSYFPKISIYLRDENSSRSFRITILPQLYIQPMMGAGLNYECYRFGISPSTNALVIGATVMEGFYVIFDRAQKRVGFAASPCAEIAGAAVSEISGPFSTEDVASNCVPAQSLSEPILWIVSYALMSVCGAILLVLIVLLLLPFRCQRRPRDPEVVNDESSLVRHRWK

[1] = read-out: Ki (nM) BACE1, Table 2
[2] = read-out: Ki (nM) BACE2, Table 2
[3] = read-out: Ki (nM) BACE1, Table 3
[4] = read-out: Ki (nM) BACE2, Table 3

Chain of BACE1 enzyme (P56817 46-501): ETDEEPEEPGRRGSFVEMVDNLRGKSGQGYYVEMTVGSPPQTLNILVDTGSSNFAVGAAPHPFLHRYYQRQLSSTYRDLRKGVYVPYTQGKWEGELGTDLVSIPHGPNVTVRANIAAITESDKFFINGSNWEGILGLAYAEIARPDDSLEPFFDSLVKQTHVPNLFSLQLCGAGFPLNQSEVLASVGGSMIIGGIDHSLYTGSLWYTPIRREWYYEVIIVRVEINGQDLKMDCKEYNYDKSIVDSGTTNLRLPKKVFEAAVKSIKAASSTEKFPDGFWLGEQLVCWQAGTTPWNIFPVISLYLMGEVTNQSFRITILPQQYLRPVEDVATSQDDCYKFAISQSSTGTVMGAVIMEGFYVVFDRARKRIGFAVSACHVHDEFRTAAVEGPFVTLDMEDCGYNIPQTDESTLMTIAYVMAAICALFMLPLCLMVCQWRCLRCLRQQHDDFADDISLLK

Q: COc1cccc([C@@H](NC[C@@H](O)[C@H](Cc2ccccc2)NC(=O)c2cccc(C(=O)N(C)[C@H](C)c3ccccc3)c2)[C@H](C)O)c1 [inhibitor 3c, N^1-((2S,3R)-3-Hydroxy-4-(((1R,2S)-2-hydroxy-1-(3-methoxyphenyl)propyl)ammo)-1-phenylbutan-2-yl)-N^3-methyl-N^3-((R)-1-phenylethyl)isophthalamide] was tested. Which Ki (BACE1 enzyme; [1]) did it give?
A: The Ki was 51300 nM.

Q: What about the “selectivity for BACE2 over BACE1” value (BACE2 enzyme) of the same molecule?
A: Its value is 54 fold.

Q: What about the Ki (BACE2 enzyme; [2]) of the same molecule?
A: Its Ki is 950 nM.

Q: For COc1cccc([C@@H](NC[C@@H](O)[C@H](Cc2ccccc2)NC(=O)c2cc(C)cc(C(=O)N(C)[C@H](C)c3ccccc3)c2)[C@H](C)O)c1 [inhibitor 3d, N^1-((2S,3R)-3-Hydroxy-4-(((1R,2S)-2-hydroxy-1-(3-methoxyphenyl)propyl)amino)-1-phenylbutan-2-yl)-N^3,5-dimethyl-N^3-((R)-1-phenylethyl)isophthalamide], which Ki (BACE1 enzyme; Ki (nM) BACE1, Table 2) is on record?
A: The Ki was 16200 nM.

Q: And the Ki (BACE2 enzyme; Ki (nM) BACE2, Table 2)?
A: Its Ki is 480 nM.

Q: What about the “selectivity for BACE2 over BACE1” value (BACE2 enzyme) of the same molecule?
A: Its value is 34 fold.

Q: CCC[C@H](O)[C@H](NC[C@@H](O)[C@H](Cc1ccccc1)NC(=O)c1cccc(C(=O)N(C)[C@H](C)c2ccccc2)c1)c1cccc(OC)c1 [inhibitor 3e, N^1-((2S,3R)-3-Hydroxy-4-(((1R,2S)-2-hydroxy-1-(3-methoxyphenyl)pentyl)amino)-1-phenylbutan-2-yl)-N^3-methyl-N^3-((R)-1-phenylethyl)isophthalamide] was tested. Which Ki (BACE1 enzyme; Ki (nM) BACE1, Table 2) did it give?
A: The Ki was 38600 nM.

Q: And the Ki (BACE2 enzyme; Ki (nM) BACE2, Table 2)?
A: Its Ki is 243 nM.

Q: And the “selectivity for BACE2 over BACE1” value (BACE2 enzyme)?
A: Its value is 159 fold.

Q: Which results are given for CCC[C@H](O)[C@H](NC[C@@H](O)[C@H](Cc1ccccc1)NC(=O)c1cc(C)cc(C(=O)N(C)[C@H](C)c2ccccc2)c1)c1cccc(OC)c1 [inhibitor 3f, N^1-((2S,3R)-3-Hydroxy-4-(((1R,2S)-2-hydroxy-1-(3-methoxyphenyl)pentyl)ammo)-1-phenylbutan-2-yl)-N^3,5-dimethyl-N^3-((R)-1-phenylethyl)isophthalamide]?
A: Ki (BACE1 enzyme; [1]): 8800 nM; selectivity for BACE2 over BACE1 (BACE2 enzyme): 62 fold; Ki (BACE2 enzyme; [2]): 141 nM

Q: With CCC[C@H](O)[C@H](NC[C@@H](O)[C@H](Cc1ccccc1)NC(=O)c1cccc(C(=O)N(C)[C@H](C)c2ccccc2)c1)c1ccccc1 [inhibitor 3g, N^1-((2S,3R)-3-Hydroxy-4-(((1R,2S)-2-hydroxy-1-phenylpentyl)ammo)-1-phenylbutan-2-yl)-N^3-methyl-N^3-((R)-1-phenylethyl)isophthalamide] as the molecule, how does the Ki (BACE1 enzyme; [1]) read?
A: Its Ki is 42500 nM.

Q: And the Ki (BACE2 enzyme; [2])?
A: The Ki was 2550 nM.

Q: Which Ki (BACE1 enzyme; Ki (nM) BACE1, Table 2) does the source give for CCC[C@H](O)[C@H](NC[C@@H](O)[C@H](Cc1ccccc1)NC(=O)c1cc(C)cc(C(=O)N(C)[C@H](C)c2ccccc2)c1)c1ccccc1 [inhibitor 3h, N^1-((2S,3R)-3-Hydroxy-4-(((1R,2S)-2-hydroxy-1-phenylpentyl)amino)-1-phenylbutan-2-yl)-N3,5-dimethyl-N^3-((R)-1-phenylethyl)isophthalamide] here?
A: Its Ki is 18100 nM.

Q: And the Ki (BACE2 enzyme; Ki (nM) BACE2, Table 2)?
A: The Ki was 905 nM.

Q: COc1cccc(CNC[C@@H](O)[C@H](Cc2ccccc2)NC(=O)c2cccc(C(=O)N(C)[C@H](C)c3ccccc3)c2)c1 [inhibitor 3i, N^1-((2S,3R)-3-Hydroxy-4-((3-methoxybenzyl)ammo)-1-phenylbutan-2-yl)-N^3-methyl-N^3-((R)-1-phenylethyl)isophthalamide] was tested. Which Ki (BACE1 enzyme; [3]) did it give?
A: Its Ki is 2080 nM.

Q: What about the Ki (BACE2 enzyme; read-out: BACE2 Ki) of the same molecule?
A: The Ki was 39.4 nM.

Q: What about the Ki (BACE2 enzyme; [4]) of the same molecule?
A: The Ki was 39.5 nM.

Q: Which results are given for COc1cccc(CNC[C@@H](O)[C@H](Cc2ccccc2)NC(=O)c2cc(C)cc(C(=O)N(C)[C@H](C)c3ccccc3)c2)c1 [inhibitor 3j, N^1-((2S,3R)-3-Hydroxy-4-((3-methoxybenzyl)ammo)-1-phenylbutan-2-yl)-N3,5-dimethyl-N^3-((R)-1-phenylethyl)isophthalamide]?
A: Ki (BACE1 enzyme; [3]): 837 nM; selectivity for BACE2 over BACE1 (BACE2 enzyme): ~60 fold; Ki (BACE2 enzyme; [4]): 14 nM

Q: With C[C@H](c1ccccc1)N(C)C(=O)c1cccc(C(=O)N[C@@H](Cc2ccccc2)[C@H](O)CNCc2cccc(C(F)(F)F)c2)c1 [inhibitor 3k, N^1-((2S,3R)-3-Hydroxy-1-phenyl-4-((3-(trifluoromethyl)benzyl)amino)butan-2-yl)-N^3-methyl-N^3-((R)-1-phenylethyl)isophthalamide] as the molecule, how does the Ki (BACE1 enzyme; Ki (nM) BACE1, Table 3) read?
A: The Ki was 1350 nM.

Q: What about the Ki (BACE2 enzyme; BACE2 Ki) of the same molecule?
A: The Ki was 35.7 nM.

Q: What about the Ki (BACE2 enzyme; Ki (nM) BACE2, Table 3) of the same molecule?
A: Its Ki is 35.7 nM.

Q: What about the “selectivity for BACE2 over BACE1” value (BACE2 enzyme) of the same molecule?
A: Its value is 37 fold.

Q: Which Ki (BACE1 enzyme; [3]) does the source give for Cc1cc(C(=O)N[C@@H](Cc2ccccc2)[C@H](O)CNCc2cccc(C(F)(F)F)c2)cc(C(=O)N(C)[C@H](C)c2ccccc2)c1 [inhibitor 3l, N^1-((2S,3R)-3-Hydroxy-1-phenyl-4-((3-(trifluoromethyl)benzyl)ammo)butan-2-yl)-N^3,5-dimethyl-N^3-((R)-1-phenylethyl)isophthalamide] here?
A: The Ki was 815 nM.

Q: And the “selectivity for BACE2 over BACE1” value (BACE2 enzyme)?
A: Its value is “over 500 fold”.

Q: What about the Ki (BACE2 enzyme; [4]) of the same molecule?
A: The Ki was 1.6 nM.

Q: COc1cccc(CNC[C@@H](O)[C@H](Cc2ccccc2)NC(=O)c2cccc(C(=O)N(C)Cc3nc(C)co3)c2)c1 [inhibitor 3m, N^1-((2S,3R)-3-Hydroxy-4-((3-methoxybenzyl)amino)-1-phenylbutan-2-yl)-N^3-methyl-N^3-((4-methyloxazol-2-yl)methyl)isophthalamide] was tested. Which Ki (BACE1 enzyme; Ki (nM) BACE1, Table 3) did it give?
A: The Ki was 68.8 nM.

Q: And the “selectivity for BACE1 against BACE2” value (BACE1 enzyme)?
A: The value was “over 100 fold”.

Q: And the Ki (BACE2 enzyme; Ki (nM) BACE2, Table 3)?
A: The Ki was 7330 nM.

Q: What does the source list for COc1cccc(CNC[C@@H](O)[C@H](Cc2ccccc2)NC(=O)c2cc(C)cc(C(=O)N(C)Cc3nc(C)co3)c2)c1 [inhibitor 3n, N^1-((2S,3R)-3-Hydroxy-4-((3-methoxybenzyl)amino)-1-phenylbutan-2-yl)-N^3,5-dimethyl-N^3-((4-methyloxazol-2-yl)methyl)isophthalamide]?
A: Ki (BACE1 enzyme; Ki (nM) BACE1, Table 3): 25.4 nM; selectivity for BACE1 against BACE2 (BACE1 enzyme): > 75 fold; Ki (BACE2 enzyme; Ki (nM) BACE2, Table 3): 1920 nM
